Measurements published in ChEMBL document CHEMBL3988442, “University of Dundee, Small-Polar-MMV Screening Library” (2021).
Values joined by “and” are separate entries in the source; they are usually repeats but may differ in a detail not shown here. Equal entries are not always repeated.

Assays:
[1] = target: ClpP1P2 (Mycobacterium tuberculosis (strain ATCC 25618 / H37Rv), UniProt P9WPC3+P9WPC5); test: in vitro assay to detect presence of AMC directly proportional to the activity of ClpP1P2. GHDDI collaboration.; type: functional
[2] = system: Plasmodium falciparum; test: Calibr Malaria Delayed Death Assay SOP; type: functional, organism-based; conditions: for IC50: Plasmodium falciparum
[3] = microbe, parasite or virus in culture; conditions: Mycobacterium tuberculosis, 96 h, read-out: pIC50 (converted)
[4] = microbe, parasite or virus in culture; conditions: Mycobacterium tuberculosis, 72 h, read-out: pIC50 (converted)

Row | SMILES | IC50 [1] [nM] | pIC50 [2] | IC50 [2] [nM] | IC50 [3] [nM] | IC50 [4] [nM]
1 | Cc1nc(CN2CCC(O)(c3ccccc3F)CC2)c2ccccn12 | > 100000 |  |  |  | 
2 | Cc1cnn(CC2CN(Cc3nc4cccnc4[nH]3)CCO2)c1 (configuration not stated) | > 100000 |  |  |  | 
3 | CNC(=O)c1cc2c(nc1NCC(C)C)CCN(S(=O)(=O)N(C)C)CC2 | > 100000 |  |  |  | 
4 | CC(C(=O)N1CCCN(c2ccccc2C#N)CC1)n1cccn1 (configuration not stated) | > 100000 |  |  |  | 
5 | c1cnc(Nc2cncc(C3CCCN3)n2)cn1 (configuration not stated) | > 100000 |  |  |  | 
6 | O=C1C[C@H]2CC[C@@H](CN1)N2c1cc(-c2ccccc2F)nc2ccnn12 | > 100000 |  |  |  | 
7 | Cc1nc(N2C[C@H]3CC[C@@H](C2)N3)nc2cc(S(C)(=O)=O)ccc12 | > 100000 |  |  |  | 
8 | OCCNc1nc(NCc2cccnc2)nc2nccnc12 | > 100000 |  |  |  | 
9 | CNc1cncc(C2CCCN2C(=O)CCn2ccnc2C(C)C)n1 (configuration not stated) | > 100000 |  |  |  | 
10 | c1ccc(O[C@H]2C[C@@H]3CN(Cc4cnccn4)C[C@@H]3C2)cc1 | > 100000 |  |  |  | 
11 | Cc1cc(C)c2cc(CNCC3CCCO3)c3nn(C)c(=O)n3c2c1 (configuration not stated) | > 100000 |  |  |  | 
12 | c1ccc(C2CN(C3CC3)CC3(CCN(Cc4cscn4)CC3)C2)cc1 (configuration not stated) |  | 6.129 | 969 | 25700 | 26100
13 | c1cncc(-c2ccc3c(c2)CCC32CCNCC2)c1 |  | 5.939 | 1280 | 40900 | 46200
14 | COc1ccc2[nH]c(CNc3cc(C4CCNCC4)nc(C)n3)cc2c1 |  | 5.758 | 1830 | 12400 | 14300
15 | CCc1[nH]c2c(CNc3cc(C)nc(NC)n3)cc(C)cc2c1C |  | 6.096 | 750 | 40300 | 35700
16 | Cc1cnn(CCCNCc2csc(COc3ccccc3)n2)c1 |  | 6.021 | 828 | 11400 | 27800
17 | Cc1cc(Cc2cccc(C(F)(F)F)c2)cc(C2CCCNC2)n1 (configuration not stated) |  | 6.047 | 1120 | 37900 | 25300
18 | CS(=O)(=O)CCCNC1(c2cccc(Cl)c2)CCCC1 |  | 6.268 | 870 | > 50100 | > 50100
19 | O=C(CCN1CCCC(CO)(CC2CC2)C1)NCc1cccc(Cl)c1 (configuration not stated) |  | 5.764 | 1320 | > 50100 | > 50100
20 | OC1(CN2CCC(Oc3cccc(C(F)(F)F)c3)CC2)CCNC1 (configuration not stated) |  | 6.152 | 690 |  | > 50100
21 | Cc1nc(-c2cc(Cl)c3c(c2)CC(CN)O3)c[nH]1 (configuration not stated) |  | 5.986 | 1390 | 8330 | 2580
22 | Cn1ccnc1CN(Cc1ccccn1)Cc1ccccc1Cl.O=C(O)CC(O)(CC(=O)O)C(=O)O |  | 6.114 | 725 |  | 45500
23 | CCc1cnc(N)nc1NC(C)c1ccc(C)c(C)c1 (configuration not stated) |  | 6.042 | 893 | 44100 | 23800
24 | CC1CCCCN1C(=O)c1coc(COc2cccc3cnccc23)n1 (configuration not stated) |  | 6.214 | 616 | 24400 | 44000
25 | CCOc1ccc(CN2CCCC(c3cc4ncccc4[nH]3)C2)cc1 (configuration not stated) |  | 6.15 | 842 | 24800 | 33600
26 | CCCn1ccnc1CN1CCCC1c1ccccn1 (configuration not stated) |  | 6.456 | 395 | > 50100 | > 50100
27 | c1ccc(-c2nc3c(c(NCc4n[nH]c5c4CCC5)n2)CCNC3)cc1 |  | 6.219 | 902 | 46100 | 25700

Row | SMILES | IC50 [1] [nM] | pIC50 [2] | IC50 [2] [nM] | IC50 [3] [nM] | IC50 [4] [nM]
28 | Cl.Cl.Clc1cccc(C[C@@H]2NCCC[C@@H]2Nc2ccccc2)c1 |  | 6.034 | 789 | 16000 | 12000
29 | Cc1ccc(CNCc2cccc3cccnc23)c(OC2CCOC2)c1 (configuration not stated) |  | 6.31 | 619 | > 50100 | > 50100
30 | COCCN(C)Cc1cc(Cl)ccc1OCC(O)CN1CCCCCC1 (configuration not stated) |  | 6.019 | 953 | 12400 | > 50100
31 | CC[C@H]1CN2CC[C@H]1C[C@@H]2CNC(=O)Nc1cc(OC)cc(OC)c1 |  | 6.272 | 762 | > 50100 | > 50100
32 | Oc1ccc(Cl)cc1CNCc1cccc(C(F)(F)F)c1 |  | 6.177 | 653 | 29100 | 43200
33 | CC[C@H]1CN2CC[C@H]1C[C@@H]2CNCc1ccc(OC(F)(F)F)cc1 |  | 6.073 | 806 | 19800 | 31900
34 | CCOc1cccc(CN2CCCC(Nc3ccc(F)cc3)C2)c1O (configuration not stated) |  | 6.217 | 577 | 46100 | 
35 | CC(C)CN1CCCC1c1ccc(C(=O)Nc2cccnc2)s1 (configuration not stated) |  | 6.101 | 537 |  | 
36 | Cc1cccc(CN2CCC(Cc3ccccc3F)CC2)n1 |  | 6.094 | 776 |  | 
37 | COc1ccccc1C(C)(C)NCc1ccc(C)o1 |  | 5.785 | 1220 |  | 
38 | CC(O)CN1CCC(CN(C)Cc2cc(F)cc3cccnc23)CC1 (configuration not stated) |  | 5.98 | 1120 |  | 
39 | O=C(NCC1CCN(CCc2ccccc2)C1)c1cc(Cl)c[nH]1 (configuration not stated) |  | 5.911 | 1260 |  | 
40 | Cc1ccc(CN2CCC3(CC2)CCN(Cc2ccco2)CC3)cc1.O=C(O)C(F)(F)F.O=C(O)C(F)(F)F |  | 6.236 | 555 |  | 
41 | c1ccc(Oc2nccc3occc23)c(CN2CCCCC2)c1 |  | 6.272 | 735 |  | 
42 | c1cc(N2CCC(CN3CCOCC3)CC2)c2sccc2n1 |  | 6.066 | 867 |  | 
43 | Cc1nc(-c2cc(Cl)cc3c2OC(CN)C3)c[nH]1 (configuration not stated) |  | 6.207 | 655 | > 50100 | 13600
44 | c1cc(-c2n[nH]cc2-c2ccnc(N3CCCC3)n2)ccn1 |  | 7.446 | 30.5 |  | 
45 | CN(Cc1ncc(C(C)(C)C)o1)CC1CCCN1c1cccnn1 (configuration not stated) |  | 5.852 | 1620 |  | 
46 | Cc1cc(NC(=O)NC2CCN(C(C)C)CC2)c2ncccc2c1 |  | 5.97 | 796 |  | 
47 | I.c1cc2c(cc1C1(CNC3=NCCN3)CCCC1)OCCO2 |  | 6.321 | 547 |  | 
48 | Cc1nc(-c2ccc(F)c(F)c2)cc(C2CCNCC2)n1.Cl |  | 6.123 | 797 |  | 
49 | Cc1ccc(C)c(OCCNC(=O)[C@@H]2CCCCN2)c1 |  | 6.461 | 362 |  | 
50 | CCN(C)CC1CCN(S(=O)(=O)c2cc(C)c(F)cc2Cl)C1 (configuration not stated) |  | 5.917 | 986 |  | 
51 | COc1ccc(CCC(=O)NCCN2CCC(c3cccs3)CC2)cc1 |  | 6.185 | 781 |  | 
52 | CC(N)Cc1ccccc1Sc1ccccc1.O=C(O)/C=C\C(=O)O (configuration not stated) |  | 6.082 | 854 |  | 
53 | CCC1CN(CC(=O)NCCN2CCCCC2)c2ccccc2S1 (configuration not stated) |  | 6.107 | 937 |  | 
54 | O=C(CCN1CCCC1c1cccc2c1OCCO2)N1CCCCC1 (configuration not stated) |  | 5.987 | 845 | > 50100 | 25200

Row | SMILES | IC50 [1] [nM] | pIC50 [2] | IC50 [2] [nM] | IC50 [3] [nM] | IC50 [4] [nM]
55 | Nc1cc(-c2c[nH]nc2C2CCCN2CCCc2ccccc2)ccn1 (configuration not stated) |  | 6.087 | 785 |  | 
56 | CN1CCC(N(C)c2ccccc2CNCc2ccco2)CC1 |  | 6.649 | 157 |  | 
57 | COc1ccc(Cn2nnnc2SCC2CCCN(C)C2)cc1 (configuration not stated) |  | 5.834 | 1090 |  | 
58 | CC(NCCN1CCC(N(C)C)CC1)c1ccc(Cl)s1 (configuration not stated) |  | 6.149 | 996 |  | 
59 | COc1cccc(CNCc2ccccc2Cl)c1O |  | 6.206 | 677 |  | 
60 | O=C(NC1CCN(CC2CC2)C1)N1CCC(OC2CCCCC2)CC1 (configuration not stated) |  | 6.591 | 332 |  | 
61 | Cc1cc(CN2CCc3nc(-c4ccncc4)nc(O)c3CC2)c(C)s1 |  | 5.926 and 6.258 |  |  | 
62 | OC[C@@H]1CCCN1c1nccc(-c2c[nH]nc2-c2ccncc2)n1 |  | 6.195 | 764 |  | 
63 | Cl.NCC1(c2cccc(Br)c2)CCOCC1 |  | 6.127 | 705 |  | 
64 | Cc1ccc(C(C)NCCc2nccn2Cc2ccccc2)o1 (configuration not stated) |  | 5.88 | 1260 |  | 
65 | CN(CCO)C[C@@H]1CN(C2CCN(c3ccccc3Cl)CC2)C[C@@H]1CO |  | 6.408 | 316 |  | 
66 | CN1CCC2(CCCN(c3nccc(C(F)(F)F)n3)C2)CC1.O=C(O)C(F)(F)F |  | 6.246 | 771 |  | 
67 | Cc1cc(S(=O)(=O)NCC2CNCCOC2)c(C)cc1Cl (configuration not stated) |  | 5.962 | 990 |  | 
68 | CN(CCO)CC1COCCN1C(=O)C1(c2cccs2)CCCC1.O=CO (configuration not stated) |  | 6.007 | 573 |  | 
69 | CC(Nc1nc(-c2ccccc2)nc2c1CCNCC2)c1cccnc1 (configuration not stated) |  | 5.884 | 1460 | 28000 | 27600
70 | CC(C)Oc1ccc(C(O)CNCc2ccccc2C(F)(F)F)cc1 (configuration not stated) |  | 5.963 | 1150 |  | 
71 | Cl.Fc1cccc(F)c1Cn1c(C2CCNCC2)cc2cccnc21 |  | 6.523 | 307 |  | 
72 | O=C(O)C(F)(F)F.c1ccc(N2CCCC3(CCN(Cc4ccsc4)C3)C2)nc1 (configuration not stated) |  | 6.157 | 842 |  | 
73 | Br.Cc1cc(C)c(N(CC(O)CNCc2ccccc2)S(C)(=O)=O)c(C)c1 (configuration not stated) |  | 6.525 | 355 |  | 
74 | COc1cccc(CNCc2ccc(F)cc2Cl)c1O |  | 6.118 | 712 |  | 
75 | Clc1cccc(C(NCc2ncc[nH]2)c2ccccn2)c1 (configuration not stated) |  | 6.581 | 225 |  | 
76 | COc1cccc(-n2ccc3nc(N4CCCC4)ncc3c2=O)c1 |  | 5.801 | 1470 |  | 
77 | Cc1cc(Br)cnc1NCCN1CCC(N(C)C)CC1 |  | 6.294 | 472 |  | 
78 | Cc1cc2c(cc1CN1CCCCC1CCn1ccnc1C)OCO2 (configuration not stated) |  | 6.025 | 1020 |  | 
79 | Cc1nn(C)cc1C1=NS(=O)(=O)N(C)C(C(=O)Nc2ccc(Cl)cc2)=C1 |  | 6.442 | 247 |  | 
80 | Brc1cccc(C2(CNCc3cc[nH]c3)CCOCC2)c1 |  | 6.135 | 829 |  | 
